{"source": "patent US4276378A", "about": "“High sensitivity assays for angiotensin converting enzyme” (priority 1977, dated 1981)", "key": {"[1]": {"test": "Solvent extraction of substrate and remnant product from acidified reaction mixture", "type": "physicochemical", "description": "While a variety of organic solvents may be suitable for the extraction step, it is preferred to employ toluene."}, "[2]": {"target": "T1, Guinea pig urinary ACE (Cavia porcellus, UniProt H0UWL7)", "T1 sequence (H0UWL7 33-1302)": "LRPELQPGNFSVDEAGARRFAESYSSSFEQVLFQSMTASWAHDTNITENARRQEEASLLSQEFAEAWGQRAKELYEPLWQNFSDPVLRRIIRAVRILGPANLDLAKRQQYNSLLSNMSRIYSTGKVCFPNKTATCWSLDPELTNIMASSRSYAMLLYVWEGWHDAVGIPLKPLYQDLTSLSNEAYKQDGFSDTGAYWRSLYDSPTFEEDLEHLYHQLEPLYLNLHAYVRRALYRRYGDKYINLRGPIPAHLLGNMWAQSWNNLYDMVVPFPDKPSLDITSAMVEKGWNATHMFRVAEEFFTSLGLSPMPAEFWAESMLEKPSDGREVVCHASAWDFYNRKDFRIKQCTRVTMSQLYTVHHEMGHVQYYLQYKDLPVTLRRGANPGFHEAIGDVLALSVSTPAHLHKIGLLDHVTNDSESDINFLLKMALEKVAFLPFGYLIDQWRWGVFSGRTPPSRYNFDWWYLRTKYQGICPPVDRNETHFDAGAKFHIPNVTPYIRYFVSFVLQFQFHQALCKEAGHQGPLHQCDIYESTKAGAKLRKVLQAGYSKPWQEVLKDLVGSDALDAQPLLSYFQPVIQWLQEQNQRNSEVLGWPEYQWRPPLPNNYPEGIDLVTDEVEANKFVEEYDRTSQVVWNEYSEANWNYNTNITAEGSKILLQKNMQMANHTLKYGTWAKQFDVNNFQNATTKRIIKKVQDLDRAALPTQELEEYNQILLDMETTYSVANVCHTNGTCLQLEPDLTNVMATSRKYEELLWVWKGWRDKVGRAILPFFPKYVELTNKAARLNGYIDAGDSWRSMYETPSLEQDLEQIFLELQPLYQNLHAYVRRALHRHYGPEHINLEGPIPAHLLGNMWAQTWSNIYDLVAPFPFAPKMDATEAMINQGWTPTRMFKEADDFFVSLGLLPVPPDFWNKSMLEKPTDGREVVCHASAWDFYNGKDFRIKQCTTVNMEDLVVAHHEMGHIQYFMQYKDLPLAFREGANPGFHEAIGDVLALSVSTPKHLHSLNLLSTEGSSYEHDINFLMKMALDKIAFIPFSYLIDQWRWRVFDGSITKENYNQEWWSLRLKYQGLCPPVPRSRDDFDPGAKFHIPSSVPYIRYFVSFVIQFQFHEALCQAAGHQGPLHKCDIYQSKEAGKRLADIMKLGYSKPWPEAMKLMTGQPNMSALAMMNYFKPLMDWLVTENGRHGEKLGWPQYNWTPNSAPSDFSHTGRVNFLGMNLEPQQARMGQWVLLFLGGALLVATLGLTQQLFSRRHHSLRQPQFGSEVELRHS", "test": "Sulfate and chloride effects on substrate hydrolysis (Example 3)", "type": "biochemical", "conditions": "37° C."}}, "note": "Peptide text beside a SMILES is read from it. * marks the point of attachment. Bz = O=C(c1ccccc1)*"}
{"smiles": "C[C@H](NC(=O)[C@H](Cc1ccccc1)NC(=O)c1ccccc1)C(=O)N1CCC[C@H]1C(=O)O", "note": "[benzoylPheAlaPro, benzoyl-Phe-Ala-Pro] (Bz-Phe-Ala-Pro-OH)", "values": [{"measurement": "extraction into ethyl acetate", "setting": "[1]; reaction terminated with dilute hydrochloric acid", "result": "almost quantitatively"}, {"measurement": "fraction entering the toluene phase", "setting": "[1]; toluene and acidified reaction mixture in approximately equal volumes at room temperature", "result": 6, "unit": "%"}, {"measurement": "Reaction Velocity-Percent of Substrate Hydrolyzed in 10 minutes", "setting": "[2]; benzPheAlaPro, 0.05 Hepes, pH 8.0, 0.15M HCl, Na2 SO4 concentration 0", "result": 4.4, "unit": "%"}, {"measurement": "Reaction Velocity-Percent of Substrate Hydrolyzed in 10 minutes", "setting": "[2]; benzPheAlaPro, 0.05 Hepes, pH 8.0, 0.15M HCl, Na2 SO4 concentration 0.1", "result": 5.0, "unit": "%"}, {"measurement": "Reaction Velocity-Percent of Substrate Hydrolyzed in 10 minutes", "setting": "[2]; benzPheAlaPro, 0.05 Hepes, pH 8.0, 0.15M HCl, Na2 SO4 concentration 0.2", "result": 4.45, "unit": "%"}, {"measurement": "Reaction Velocity-Percent of Substrate Hydrolyzed in 10 minutes", "setting": "[2]; benzPheAlaPro, 0.05 Hepes, pH 8.0, 0.15M HCl, Na2 SO4 concentration 0.3", "result": 4.85, "unit": "%"}, {"measurement": "Reaction Velocity-Percent of Substrate Hydrolyzed in 10 minutes", "setting": "[2]; benzPheAlaPro, 0.05 Hepes, pH 8.0, 0.15M HCl, Na2 SO4 concentration 0.5", "result": 5.6, "unit": "%"}]}
{"smiles": "CC(C)C[C@H](NC(=O)[C@H](Cc1c[nH]cn1)NC(=O)CNC(=O)c1ccccc1)C(=O)O", "note": "[HipHisLeu] (Bz-Gly-His-Leu-OH)", "values": [{"measurement": "Reaction Velocity-Percent of Substrate Hydrolyzed in 10 minutes", "setting": "[2]; HipHisLeu, 0.05M Hepes, pH 8.0, 0.0M NaCl, Na2 SO4 concentration 0", "result": 0, "unit": "%"}, {"measurement": "Reaction Velocity-Percent of Substrate Hydrolyzed in 10 minutes", "setting": "[2]; HipHisLeu, 0.05M Hepes, pH 8.0, 0.0M NaCl, Na2 SO4 concentration 0.1", "result": 0, "unit": "%"}, {"measurement": "Reaction Velocity-Percent of Substrate Hydrolyzed in 10 minutes", "setting": "[2]; HipHisLeu, 0.05M Hepes, pH 8.0, 0.0M NaCl, Na2 SO4 concentration 0.2", "result": 0, "unit": "%"}, {"measurement": "Reaction Velocity-Percent of Substrate Hydrolyzed in 10 minutes", "setting": "[2]; HipHisLeu, 0.05M Hepes, pH 8.0, 0.0M NaCl, Na2 SO4 concentration 0.3", "result": 0, "unit": "%"}, {"measurement": "Reaction Velocity-Percent of Substrate Hydrolyzed in 10 minutes", "setting": "[2]; HipHisLeu, 0.05M Hepes, pH 8.0, 0.0M NaCl, Na2 SO4 concentration 0.4", "result": 0.1, "unit": "%"}, {"measurement": "Reaction Velocity-Percent of Substrate Hydrolyzed in 10 minutes", "setting": "[2]; HipHisLeu, 0.05M Hepes, pH 8.0, 0.0M NaCl, Na2 SO4 concentration 0.5", "result": 0.1, "unit": "%"}, {"measurement": "Reaction Velocity-Percent of Substrate Hydrolyzed in 10 minutes", "setting": "[2]; HipHisLeu, 0.05M Hepes, pH 8.0, 0.0M NaCl, Na2 SO4 concentration 0.6", "result": 0.25, "unit": "%"}, {"measurement": "Reaction Velocity-Percent of Substrate Hydrolyzed in 10 minutes", "setting": "[2]; HipHisLeu, 0.05M Hepes, pH 8.0, 0.0M NaCl, Na2 SO4 concentration 0.7", "result": 0.25, "unit": "%"}, {"measurement": "Reaction Velocity-Percent of Substrate Hydrolyzed in 10 minutes", "setting": "[2]; HipHisLeu, 0.05M Hepes, pH 8.0, 0.0M NaCl, Na2 SO4 concentration 0.75", "result": 0.25, "unit": "%"}, {"measurement": "Reaction Velocity-Percent of Substrate Hydrolyzed in 10 minutes", "setting": "[2]; HipHisLeu, 0.05M Hepes, pH 8.0, 0.0M NaCl, Na2 SO4 concentration 0.8", "result": 0.25, "unit": "%"}, {"measurement": "Reaction Velocity-Percent of Substrate Hydrolyzed in 10 minutes", "setting": "[2]; HipHisLeu, 0.05M Hepes, pH 8.0, 0.0M NaCl, Na2 SO4 concentration 0.9", "result": 0.7, "unit": "%"}, {"measurement": "Reaction Velocity-Percent of Substrate Hydrolyzed in 10 minutes", "setting": "[2]; HipHisLeu, 0.05M Hepes, pH 8.0, 0.0M NaCl, Na2 SO4 concentration 1.2", "result": 3.9, "unit": "%"}, {"measurement": "Reaction Velocity-Percent of Substrate Hydrolyzed in 10 minutes", "setting": "[2]; HipHisLeu, 0.05M Hepes, pH 8.0, 0.1M NaCl, Na2 SO4 concentration 0", "result": 0.3, "unit": "%"}, {"measurement": "Reaction Velocity-Percent of Substrate Hydrolyzed in 10 minutes", "setting": "[2]; HipHisLeu, 0.05M Hepes, pH 8.0, 0.1M NaCl, Na2 SO4 concentration 0.4", "result": 4.1, "unit": "%"}, {"measurement": "Reaction Velocity-Percent of Substrate Hydrolyzed in 10 minutes", "setting": "[2]; HipHisLeu, 0.05M Hepes, pH 8.0, 0.1M NaCl, Na2 SO4 concentration 0.6", "result": 8.3, "unit": "%"}, {"measurement": "Reaction Velocity-Percent of Substrate Hydrolyzed in 10 minutes", "setting": "[2]; HipHisLeu, 0.05M Hepes, pH 8.0, 0.1M NaCl, Na2 SO4 concentration 0.75", "result": 12.05, "unit": "%"}, {"measurement": "Reaction Velocity-Percent of Substrate Hydrolyzed in 10 minutes", "setting": "[2]; HipHisLeu, 0.05M Hepes, pH 8.0, 0.1M NaCl, Na2 SO4 concentration 0.9", "result": 12.25, "unit": "%"}]}
